The term pEC50 denotes the EC50 on a negative log10 scale, so that one unit is a factor of ten.

pEC50: −log10 of the molar value.

T1 sequence (P13569 with tags, fused parts or gaps DEL508-508): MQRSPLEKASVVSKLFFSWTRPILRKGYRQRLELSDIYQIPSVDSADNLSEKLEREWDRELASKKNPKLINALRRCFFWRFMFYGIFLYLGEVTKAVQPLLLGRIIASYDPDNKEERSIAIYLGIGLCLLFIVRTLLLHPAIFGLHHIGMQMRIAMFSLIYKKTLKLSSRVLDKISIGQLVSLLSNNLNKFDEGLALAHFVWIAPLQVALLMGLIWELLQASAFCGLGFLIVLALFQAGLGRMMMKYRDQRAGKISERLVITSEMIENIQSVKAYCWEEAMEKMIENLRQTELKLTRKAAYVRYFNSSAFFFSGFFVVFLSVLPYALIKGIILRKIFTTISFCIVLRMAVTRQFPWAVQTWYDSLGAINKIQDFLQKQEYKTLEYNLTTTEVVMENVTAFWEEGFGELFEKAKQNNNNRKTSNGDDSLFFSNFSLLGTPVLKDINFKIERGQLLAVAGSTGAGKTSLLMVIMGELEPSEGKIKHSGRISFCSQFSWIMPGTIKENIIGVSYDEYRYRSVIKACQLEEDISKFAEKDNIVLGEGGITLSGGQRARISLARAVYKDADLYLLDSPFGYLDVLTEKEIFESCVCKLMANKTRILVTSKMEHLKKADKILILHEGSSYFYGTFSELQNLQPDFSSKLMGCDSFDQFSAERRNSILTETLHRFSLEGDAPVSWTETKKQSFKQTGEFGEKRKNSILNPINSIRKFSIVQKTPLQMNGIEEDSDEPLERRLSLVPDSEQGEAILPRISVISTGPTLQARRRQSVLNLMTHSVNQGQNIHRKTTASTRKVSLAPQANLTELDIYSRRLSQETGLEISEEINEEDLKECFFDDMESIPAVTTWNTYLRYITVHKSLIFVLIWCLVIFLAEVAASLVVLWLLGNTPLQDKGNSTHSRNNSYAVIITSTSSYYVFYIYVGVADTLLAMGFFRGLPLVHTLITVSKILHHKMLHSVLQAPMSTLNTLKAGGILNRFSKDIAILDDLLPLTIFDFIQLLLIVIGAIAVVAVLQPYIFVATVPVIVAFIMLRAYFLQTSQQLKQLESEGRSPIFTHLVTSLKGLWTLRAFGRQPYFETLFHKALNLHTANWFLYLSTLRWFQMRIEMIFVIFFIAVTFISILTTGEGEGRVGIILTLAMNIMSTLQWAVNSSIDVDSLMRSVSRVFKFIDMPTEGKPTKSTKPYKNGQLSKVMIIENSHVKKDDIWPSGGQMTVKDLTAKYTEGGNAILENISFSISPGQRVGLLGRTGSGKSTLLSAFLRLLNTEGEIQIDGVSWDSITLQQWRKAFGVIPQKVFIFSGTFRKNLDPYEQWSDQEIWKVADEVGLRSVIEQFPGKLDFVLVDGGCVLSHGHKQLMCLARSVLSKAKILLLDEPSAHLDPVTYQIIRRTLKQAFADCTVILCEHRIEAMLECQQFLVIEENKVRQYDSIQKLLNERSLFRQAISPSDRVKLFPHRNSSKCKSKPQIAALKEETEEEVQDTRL

The first experiment has as its target T1, CFTR (Homo sapiens, UniProt P13569, DEL508-508).
T1 construct: endogenous in cells; host or cells: primary human bronchial epithelial cells, F508del/MF genotype
The experiment is described as follows: HBE Assay: Ussing chamber assay of CFTR-mediated short-circuit currents in F508del/MF-HBE cells with 1 μM Ivacaftor. Type of experiment: cell-based. The following applies: range of concentrations with 1 μM Ivacaftor, 18-24 hours, 20% human serum. In outline: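 F508del/MF-HBE cells at air-liquid interface >14 days were incubated 18-24 h at 37° C with corrector (concentration range or fixed 10 μM) plus 1 μM Ivacaftor in 20% human serum, compounds kept throughout. Ussing chamber, Vhold=0 mV, 37° C, apical amiloride 30 μM; ISC (μA/cm^2) from peak 20 μM forskolin response to steady state after CFTR inhibitor cocktail.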
Consider `Cc1cccc(C)c1-c1nc2nc(c1F)OC[C@@H](CC1CC1)N(Cc1ncc(OC(C)C)cn1)C(=O)c1cccc(c1)S(=O)(=O)N2` [Compound 343], for which the pEC50 is 5.52 to 6.00.

In the case of `Cc1cccc(C)c1-c1nc2nc(c1C)OC[C@@H](CC1CC1)N(Cc1ncc(OC3CCC3)cn1)C(=O)c1cccc(c1)S(=O)(=O)N2` [Compound 346], the pEC50 was > 6.00.

For the compound `CCOc1cnc(CN2C(=O)c3cccc(c3)S(=O)(=O)Nc3nc(c(C)c(-c4c(C)cccc4CC(C)C)n3)OC[C@H]2CC(C)(C)C)nc1` (atropisomer, axis not shown) [Compound 339], the pEC50 is > 6.00.

Staying with this experiment, now noted: single fixed concentration of 10 μM, with 1 μM Ivacaftor, 20% human serum.
For the compound `Cc1cccc(CC2CCOCC2)c1-c1nc2nc(c1C)OC[C@@H](CC(C)(C)C)N(Cc1ccc(N3CCOCC3)cn1)C(=O)c1cccc(c1)S(=O)(=O)N2` (atropisomer, axis not shown) [Compound 274], the “HBE Activity at 10 μM” value is on record as “++ (++ is 30-60%)”.

As for `Cc1cccc(COC(C)C)c1-c1nc2nc(c1C)OC[C@@H](CC(C)(C)C)N(Cc1ncc(N3CCC(C)(C)C3)cn1)C(=O)c1cccc(c1)S(=O)(=O)N2` (atropisomer, axis not shown; (M)) [Compound 220, (5M,11R)-11-(2,2-dimethylpropyl)-12-{[5-(3,3-dimethylpyrrolidin-1-yl)pyrimidin-2-yl]methyl}-7-methyl-6-{2-methyl-6-[(propan-2-yloxy)methyl]phenyl}-9-oxa-2λ^6-thia-3,5,12,19-tetraazatricyclo[12.3.1.14,8]nonadeca-1(17),4(19),5,7,14(18),15-hexaene-2,2,13-trione], the “HBE Activity at 10 μM” value was “++ (++ is 30-60%)”.

Turning to `Cc1cccc(CC(C)C)c1-c1nc2nc(c1C)OC[C@@H](CC(C)C)N(Cc1nccc(N(C)C(C)C)n1)C(=O)c1cccc(c1)S(=O)(=O)N2` (atropisomer, axis not shown) [Compound 231], the “HBE Activity at 10 μM” value is “+++ (+++ is >600%)”.

With `Cc1cccc(CC(C)C)c1-c1nc2nc(c1C)OC[C@@H](CC(C)(C)C)NC(=O)c1cccc(c1)S(=O)(=O)N2` (atropisomer, axis not shown) [Compound 226], the “HBE Activity at 10 μM” value is recorded as “+++ (+++ is >600%)”.

`Cc1cccc(C(C)C)c1-c1nc2nc(c1C)OC[C@@H](CC(C)(C)C)N(Cc1cnc(C3CCOCC3)cn1)C(=O)c1cccc(c1)S(=O)(=O)N2` (atropisomer, axis not shown) [Compound 319]: the “HBE Activity at 10 μM” value was “+++ (+++ is >600%)”.

Regarding `Cc1cccc(CC(C)C)c1-c1nc2nc(c1C)OC[C@@H](CC(C)(C)C)NC(=O)c1cccc(c1)S(=O)(=O)N2` (atropisomer, axis not shown) [Compound 227], the “HBE Activity at 10 μM” value is on record as “+++ (+++ is >600%)”.

On to `Cc1cccc(CC2CCCCC2)c1-c1nc2nc(c1C(F)(F)F)OC[C@@H](CC(C)(C)C)N(Cc1ccc(N3CCOCC3)cn1)C(=O)c1cccc(c1)S(=O)(=O)N2` (atropisomer, axis not shown) [Compound 248], for which the “HBE Activity at 10 μM” value was “+++ (+++ is >600%)”.

The experiment is the same for the next values; noted with them: with 1 μM Ivacaftor, 18-24 hours, 20% human serum.
Take `Cc1cccc(CC2CCCCC2)c1-c1nc2nc(c1C)OC[C@@H](CC(C)(C)C)NC(=O)c1cccc(c1)S(=O)(=O)N2` (atropisomer, axis not shown) [Compound 312]: the pEC50 is > 6.00 and the “HBE Max Activity” value is “++ (++ is 30-60%)”.

Turning to `Cc1cccc(CC(C)C)c1-c1nc2nc(c1C)OC[C@@H](CC(C)C)N(Cc1cccc(N3CCC[C@H]3C)n1)C(=O)c1cccc(c1)S(=O)(=O)N2` (atropisomer, axis not shown) [Compound 237], the negative-log EC50 (pEC50) is > 6.00 and the “HBE Max Activity” value is recorded as “+++ (+++ is >600%)”.

`Cc1cccc(CC(C)C)c1-c1nc2nc(c1C)OC[C@@H](CC(C)(C)C)N(Cc1ncc(N(C)C)cn1)C(=O)c1cccc(c1)S(=O)(=O)N2` (atropisomer, axis not shown) [Compound 236]: the pEC50 was > 6.00 and the “HBE Max Activity” value was “+++ (+++ is >600%)”.

In the case of `Cc1cccc(CC2CCCCC2)c1-c1nc2nc(c1C)OC[C@@H](CC(C)(C)C)N(Cc1ccc(N3CCOCC3)cn1)C(=O)c1cccc(c1)S(=O)(=O)N2` (single isomer, unassigned) [Compound 207], the pEC50 is > 6.00 and the “HBE Max Activity” value was “+++ (+++ is >600%)”.

As for `Cc1cccc(CC2CCCCC2)c1-c1nc2nc(c1C)OC[C@@H](CC(C)(C)C)N(Cc1ncc(C3CCCCC3)cn1)C(=O)c1cccc(c1)S(=O)(=O)N2` (atropisomer, axis not shown) [Compound 276], the pEC50 is > 6.00 and the “HBE Max Activity” value was “+++ (+++ is >600%)”.

For `Cc1cccc(CC2CCCCC2)c1-c1nc2nc(c1C)OC[C@@H](CC(C)(C)C)N(Cc1ccc(N3CCCCC3)cn1)C(=O)c1cccc(c1)S(=O)(=O)N2` (atropisomer, axis not shown) [Compound 307], the negative-log EC50 (pEC50) is > 6.00 and the “HBE Max Activity” value is listed as “+++ (+++ is >600%)”.

As for `Cc1cccc(CC(C)C)c1-c1nc2nc(c1C)OC[C@@H](CC(C)C)N(Cc1ncc(CC(C)C)cn1)C(=O)c1cccc(c1)S(=O)(=O)N2` (atropisomer, axis not shown; (P)) [Compound 219, (5P,11R)-11-isobutyl-6-(2-isobutyl-6-methyl-phenyl)-12-[(5-isobutylpyrimidin-2-yl)methyl]-7-methyl-2,2-dioxo-9-oxa-2^6-thia-3,5,12,19-tetrazatricyclo[12.3.1.14,8]nonadeca-1(18),4(19),5,7,14,16-hexaen-13-one], the negative-log EC50 (pEC50) was > 6.00 and the “HBE Max Activity” value is on record as “+++ (+++ is >600%)”.

Take `Cc1cccc(C2CC2)c1-c1nc2nc(c1C)OC[C@@H](CC(C)(C)C)N(Cc1ncc(N3CCOCC3)cn1)C(=O)c1cccc(c1)S(=O)(=O)N2` (atropisomer, axis not shown; (P)) [Compound 216, (5P,11R)-6-(2-Cyclopropyl-6-methyl-phenyl)-11-(2,2-dimethylpropyl)-7-methyl-12-[(5-morpholinopyrimidin-2-yl)methyl]-2,2-dioxo-9-oxa-2λ^6-thia-3,5,12,19-tetrazatricyclo[12.3.1.14,8]nonadeca-1(18),4(19),5,7,14,16-hexaen-13-one]: the negative-log EC50 (pEC50) is > 6.00 and the “HBE Max Activity” value is “+++ (+++ is >600%)”.

Take `Cc1cccc(C)c1-c1nc2nc(c1C)OC[C@@H](CC(C)C)N(Cc1ncc(N3CCC(C)(C)CC3)cn1)C(=O)c1cccc(c1)S(=O)(=O)N2` [Compound 198]: the pEC50 is > 6.00 and the “HBE Max Activity” value is reported as “+++ (+++ is >600%)”.

As to `COc1ccc(CN2C(=O)c3cccc(c3)S(=O)(=O)Nc3nc(c(C)c(-c4c(C)cccc4CC4CCCCC4)n3)OC[C@H]2CC(C)(C)C)nc1` (atropisomer, axis not shown) [Compound 301], the pEC50 was > 6.00 and the “HBE Max Activity” value is on record as “+++ (+++ is >600%)”.

Regarding `Cc1cccc(C)c1-c1nc2nc(c1C)OC[C@@H](CC(C)C)N(Cc1ncc(N3CCC(C)(C)C3)cn1)C(=O)c1cccc(c1)S(=O)(=O)N2` [Compound 199], the pEC50 was > 6.00 and the “HBE Max Activity” value was “+++ (+++ is >600%)”.

As for `Cc1cccc(CC2CCCC2)c1-c1nc2nc(c1C)OC[C@@H](CC(C)(C)C)N(Cc1ncc(N3CCOCC3)cn1)C(=O)c1cccc(c1)S(=O)(=O)N2` (atropisomer, axis not shown) [Compound 280], the pEC50 is > 6.00 and the “HBE Max Activity” value is on record as “+++ (+++ is >600%)”.

Still in this experiment, the particulars now being: with 1 μM Ivacaftor, 18-24 hours, 20% human serum, compared to known Vertex corrector with 18 μM Tezacaftor and 1 μM Ivacaftor, read-out: HBE Max activity (%).
Take `Cc1cccc(C)c1-c1nc2nc(c1F)OC[C@@H](CC1CC1)N(Cc1ncc(OC(C)C)cn1)C(=O)c1cccc(c1)S(=O)(=O)N2` [Compound 343]: the Emax was > 60%.

Take `Cc1cccc(C)c1-c1nc2nc(c1C)OC[C@@H](CC1CC1)N(Cc1ncc(OC3CCC3)cn1)C(=O)c1cccc(c1)S(=O)(=O)N2` [Compound 346]: the Emax is > 60%.

Turning to `CCOc1cnc(CN2C(=O)c3cccc(c3)S(=O)(=O)Nc3nc(c(C)c(-c4c(C)cccc4CC(C)C)n3)OC[C@H]2CC(C)(C)C)nc1` (atropisomer, axis not shown) [Compound 339], the Emax was > 60%.

The values above are taken from patent US20230374038A1, “MODULATORS OF CYSTIC FIBROSIS TRANSMEMBRANE CONDUCTANCE REGULATOR” (VERTEX PHARMACEUTICALS INCORPORATED, priority 2020, published 2023).
